Data from ChEMBL document CHEMBL4706663, “Large-scale isolation and antitumor mechanism evaluation of compounds from the traditional Chinese medicine Cordyceps Militaris” (Eur J Med Chem, 2021).

Assays:
HepG2 = assay: Antiproliferative activity against human HepG2 cells assessed as inhibition of cell growth at 12.5 ug/ml measured after 48 hrs by real-time cell analysis relative to control; type: functional; details: read-out: GI
A549 = assay: Antiproliferative activity against human A549 cells assessed as inhibition of cell growth at 12.5 ug/ml measured after 48 hrs by real-time cell analysis relative to control; type: functional; details: read-out: GI
Mus musculus [1] = assay: Anti-insomnia activity pentobarbital-induced mouse model of insomnia assessed as number of forelimb lifts at 32 mg/kg, ig administered daily for 15 days followed by pentobarbital addition at 1 hr post last dose (reference value: 9.2 +/- 4.31); type: functional; details: time 15 day
Mus musculus [2] = assay: Anti-insomnia activity pentobarbital-induced mouse model of insomnia assessed as sleep rate at 16 mg/kg, ig administered daily for 15 days followed by pentobarbital addition at 1 hr post last dose relative to control; type: functional; details: time 15 day
Mus musculus [3] = assay: Anti-insomnia activity pentobarbital-induced mouse model of insomnia assessed as time of sleep duration at 16 mg/kg, ig administered daily for 15 days followed by pentobarbital addition at 1 hr post last dose (reference value: 17.1 +/- 5.15 min); type: functional; details: time 15 day
Mus musculus [4] = assay: Anti-insomnia activity pentobarbital-induced mouse model of insomnia assessed as time of sleep latency at 16 mg/kg, ig administered daily for 15 days followed by pentobarbital addition at 1 hr post last dose (reference value: 8.1 +/- 6.06 min); type: functional; details: time 15 day
Mus musculus [5] = assay: Anti-insomnia activity pentobarbital-induced mouse model of insomnia assessed as sleep rate at 8 mg/kg, ig administered daily for 15 days followed by pentobarbital addition at 1 hr post last dose relative to control; type: functional; details: time 15 day
Mus musculus [6] = assay: Anti-insomnia activity pentobarbital-induced mouse model of insomnia assessed as number of forelimb lifts at 8 mg/kg, ig administered daily for 15 days followed by pentobarbital addition at 1 hr post last dose (reference value: 9.2 +/- 4.31); type: functional; details: time 15 day
Mus musculus [7] = assay: Anti-insomnia activity pentobarbital-induced ig dosed mouse model of insomnia assessed as increase in sleep time administered daily for 15 days followed by pentobarbital addition at 1 hr post last dose; type: functional, organism-based; details: dose 8-32 mg/kg, time 15.0 day
Mus musculus [8] = assay: Anti-insomnia activity pentobarbital-induced mouse model of insomnia assessed as time of sleep latency at 32 mg/kg, ig administered daily for 15 days followed by pentobarbital addition at 1 hr post last dose (reference value: 8.1 +/- 6.06 min); type: functional; details: time 15 day
Mus musculus [9] = assay: Anti-insomnia activity pentobarbital-induced mouse model of insomnia assessed as time of sleep duration at 32 mg/kg, ig administered daily for 15 days followed by pentobarbital addition at 1 hr post last dose (reference value: 17.1 +/- 5.15 min); type: functional; details: time 15 day
Mus musculus [10] = assay: Anti-insomnia activity pentobarbital-induced mouse model of insomnia assessed as time of sleep duration at 8 mg/kg, ig administered daily for 15 days followed by pentobarbital addition at 1 hr post last dose (reference value: 17.1 +/- 5.15 min); type: functional; details: time 15 day
Mus musculus [11] = assay: Anti-insomnia activity pentobarbital-induced mouse model of insomnia assessed as sleep rate at 32 mg/kg, ig administered daily for 15 days followed by pentobarbital addition at 1 hr post last dose relative to control; type: functional; details: time 15 day
Mus musculus [12] = assay: Anti-insomnia activity pentobarbital-induced ig dosed mouse model of insomnia assessed as reduction in time before sleep administered daily for 15 days followed by pentobarbital addition at 1 hr post last dose; type: functional, organism-based; details: dose 8-32 mg/kg, time 15.0 day
Mus musculus [13] = assay: Anti-insomnia activity pentobarbital-induced mouse model of insomnia assessed as number of forelimb lifts at 16 mg/kg, ig administered daily for 15 days followed by pentobarbital addition at 1 hr post last dose (reference value: 9.2 +/- 4.31); type: functional; details: time 15 day
Mus musculus [14] = assay: Anti-insomnia activity pentobarbital-induced mouse model of insomnia assessed as time of sleep latency at 8 mg/kg, ig administered daily for 15 days followed by pentobarbital addition at 1 hr post last dose (reference value: 8.1 +/- 6.06 min); type: functional; details: time 15 day
[15] = Toxicity in human H22 cells xenografted KM mouse assessed as survival rate at 20 mg/kg, ig administered every day for 10 days relative to control; details: in vivo, po
[16] = Antitumor activity against human Lewis lung cancer cells xenografted in BALB/c mouse assessed as tumor growth inhibition at 20 mg/kg, ig administered every day for 10 days relative to control; details: Lewis lung carcinoma, po, 240 h, read-out: TGI
[17] = Antitumor activity against human H22 cells xenografted in KM mouse assessed as tumor growth inhibition at 20 mg/kg, ig administered every day for 10 days relative to control; details: H22, po, 240 h, read-out: TGI
[18] = Toxicity in human Lewis lung cancer cells xenografted BALB/c mouse assessed as survival rate at 20 mg/kg, ig administered every day for 10 days (reference value: 100%); details: in vivo, po
Mus musculus [19] = assay: Anti-insomnia activity pentobarbital-induced mouse model of insomnia assessed as time of sleep latency at 0.029 mg/kg, ig administered daily for 15 days followed by pentobarbital addition at 1 hr post last dose (reference value: 8.1 +/- 6.06 min); type: functional; details: time 15 day
Mus musculus [20] = assay: Anti-insomnia activity pentobarbital-induced mouse model of insomnia assessed as number of forelimb lifts at 0.029 mg/kg, ig administered daily for 15 days followed by pentobarbital addition at 1 hr post last dose (reference value: 9.2 +/- 4.31); type: functional; details: time 15 day
Mus musculus [21] = assay: Anti-insomnia activity pentobarbital-induced mouse model of insomnia assessed as sleep rate at 0.029 mg/kg, ig administered daily for 15 days followed by pentobarbital addition at 1 hr post last dose relative to control; type: functional; details: time 15 day
Mus musculus [22] = assay: Anti-insomnia activity pentobarbital-induced mouse model of insomnia assessed as time of sleep duration at 0.029 mg/kg, ig administered daily for 15 days followed by pentobarbital addition at 1 hr post last dose (reference value: 17.1 +/- 5.15 min); type: functional; details: time 15 day

CC(C)[C@@H](C)/C=C/[C@@H](C)[C@H]1CC[C@H]2C3=CC(=O)[C@@]4(O)C[C@@H](O)CC[C@]4(C)[C@H]3CC[C@]12C
inhibition of growth at 12.5 µg/mL (HepG2): 100% | inhibition of growth at 12.5 µg/mL (A549): 100%

OCCNc1ncnc2c1ncn2[C@@H]1O[C@H](CO)[C@@H](O)[C@H]1O
Activity (Mus musculus [1]): 3.3 | Activity (Mus musculus [2]): 40% | Time (Mus musculus [3]): 26.2 min | Time (Mus musculus [4]): 5.2 min | Activity (Mus musculus [5]): 20% | Activity (Mus musculus [6]): 9 | Activity (Mus musculus [7]): Dose-dependent effect | Time (Mus musculus [8]): 5.1 min | Time (Mus musculus [9]): 34.5 min | Time (Mus musculus [10]): 24.2 min | Activity (Mus musculus [11]): 60% | Activity (Mus musculus [12]): Dose-dependent effect | Activity (Mus musculus [13]): 3.9 | Time (Mus musculus [14]): 5.7 min

C/C(=C\[C@@H](C)[C@H]1CC[C@@H]2[C@]1(C)CC[C@H]1[C@]23C=C[C@]2(C[C@@H](O)CC[C@]12C)OO3)[C@H](C)C(C)C
inhibition of growth at 12.5 µg/mL (HepG2): 100% | inhibition of growth at 12.5 µg/mL (A549): 100%

O=P1(N(CCCl)CCCl)NCCCO1 (stereo unspecified) [CYCLOPHOSPHAMIDE ANHYDROUS]
survival at 240 h [15]: 100% | inhibition in vivo at 20 mg/kg [16]: 46.3% | inhibition in vivo at 20 mg/kg [17]: 52.9% | survival at 240 h [18]: 100%

Clc1ccc2c(c1)C(c1ccccc1)=NCc1nncn1-2 [ESTAZOLAM]
Time (Mus musculus [19]): 5.9 min | Activity (Mus musculus [20]): 4.1 | Activity (Mus musculus [21]): 60% | Time (Mus musculus [22]): 26 min
